Results on five compounds are retold here after US20230120597A1, “CO-AGONISTS AT GLP-1 AND GIP RECEPTORS SUITABLE FOR ORAL DELIVERY” (Novo Nordisk A/S, priority 2020, published 2023).

Marks after values point to notes of the source that are not given here. Starred links: 1 amine or outer side, 2 acyl side, 3 side chain; linkers in the order of their positions; H or OH if unused. Non-standard residues stand in square brackets, D forms with d. Residues, ends and D or L forms follow the SMILES beside them. Groups on a side chain read outwards from the residue. *: point of attachment. C20 diacid = O=C(O)CCCCCCCCCCCCCCCCCCC(=O)*; C18 diacid = O=C(O)CCCCCCCCCCCCCCCCC(=O)*; γGlu = O=C(O)[C@H](CCC(=O)[*:2])N[*:1]; εLys = N[C@@H](CCCCN[*:1])C(=O)[*:2]; Aib = CC(C)(N)C(=O)O

The data set is described as follows: Pharmacokinetic study in dogs, oral dosing of tablet compositions with SNAC. The data set is classed as in vivo, Beagle dogs. Particulars: dog, in vivo, po. The procedure: The purpose of this example is to determine the half-life and plasma exposure in vivo of the compounds of the present invention after p.o. administration to beagle dogs, i.e. the terminal half-life and concentration of test substance that reaches circulation with time. This is done in a pharmacokinetic (PK) study, where these parameters of the compound in question are determined. By terminal half-life is generally meant the period of time it takes to halve a certain plasma concentration, measured after the initial distribution phase.
The amount of SNAC in the tablet composition was 100-300 mg, the amount of magnesium stearate in the tablet composition was 7.7 mg, and the target amount of each test substance in the tablet composition was 3-4 mg.
Male beagle dogs, 1-7 years of age and weighing 9-17 kg during the study period, were included in the study. The dogs were dosed in a fasting state. The dogs were group housed in pens (12 hours light: 12 hours dark), and fed individually and restrictedly once daily with Royal Canin Medium Adult dog food (Royal Canin Products, China Branch, or Brogaarden A/S, Denmark). The dogs were used for repeated PK studies with a suitable wash-out period between successive dosing. An appropriate acclimatization period was given prior to initiation of the first PK study. All handling, dosing, and blood sampling of the animals were performed by trained and skilled staff. Before the studies, the dogs were fasted overnight and from 0 to 4 hours after dosing. The dogs were restricted to water 1 hour before dosing until 4 hours after dosing, but otherwise had ad libitum access to water during the whole period.
The compositions were administered by a single oral dosing to the dogs in groups of 6-8 dogs. […] The mouth was then closed, and 10 mL of tap water was given by syringe or gavage to facilitate swallowing of the tablet.
One blood sample was drawn before dosing, and additional samples were drawn at predefined time points after dosing for up to 240 hours, such as up to 10 hours, to adequately cover the full plasma concentration-time absorption profile of the test substance. For each blood sample time point, approximately 0.8 mL of whole blood was collected in a 1.5 mL EDTA-coated tube, which was gently turned to mix the sample with EDTA. Blood samples were collected in EDTA buffer (8 mM) and then centrifuged at 4° C. 2000 g for 10 minutes. Plasma was pipetted into Micronic tubes on dry ice, and kept at −20° C. or lower until analysis. Blood samples were taken as appropriate, for example from a venflon in the cephalic vein in the front leg for the first 2 hours and then with syringe from the jugular vein for the rest of the time points. The first few drops were allowed to drain from the venflon to avoid heparin saline from the venflon in the sample.
All blood samples were collected into test tubes containing EDTA for stabilisation and kept on ice until centrifugation. Plasma was separated from whole blood by centrifugation and the plasma was stored at −20° C. or lower until analysis.
The plasma was analysed for test substance using LC-MS (Liquid Chromatography-Mass Spectrometry) as known to the person skilled in the art. […] RP-HPLC separation was achieved using a linear gradient of 1:1 acetonitrile/methanol in 1% aqueous formic acid using either: a Phenomenex Onyx Monolithic C18 column (50×2.0 mm) and a flow rate of 0.8 mL/min at 30° C.; or an Agilent Poroshell 120 SB-C18 column (50×2.1 mm, 2.7 μm) at a flow rate of 0.4 mL/min at 60° C. The mass spectrometer was operated in either positive ionization SIM mode or positive ionization PRM mode.
For each individual animal, a plasma concentration-time profile was analysed by a non-compartmental model in Pharsight Phoenix WinNonLin ver.
`CC[C@H](C)[C@H](NC(=O)[C@H](Cc1ccccc1)NC(=O)[C@H](CCC(=O)O)NC(=O)[C@H](CCCNC(=N)N)NC(=O)[C@H](C)NC(=O)[C@H](C)NC(=O)[C@H](CCC(N)=O)NC(=O)[C@H](CCCCNC(=O)[C@@H](N)CCCCNC(=O)[C@@H](N)CCCCNC(=O)CC[C@H](NC(=O)CCCCCCCCCCCCCCCCCCC(=O)O)C(=O)O)NC(=O)[C@H](CCC(=O)O)NC(=O)[C@H](CC(C)C)NC(=O)[C@H](Cc1ccc(O)cc1)NC(=O)[C@@H](NC(=O)[C@H](CO)NC(=O)[C@H](Cc1ccc(O)cc1)NC(=O)[C@H](CC(=O)O)NC(=O)[C@H](CO)NC(=O)[C@@H](NC(=O)[C@H](Cc1ccccc1)NC(=O)[C@@H](NC(=O)CNC(=O)[C@H](CCC(=O)O)NC(=O)C(C)(C)NC(=O)[C@@H](N)Cc1ccc(O)cc1)[C@@H](C)O)[C@@H](C)O)[C@@H](C)CC)C(=O)N[C@@H](CC(N)=O)C(=O)N[C@@H](Cc1c[nH]c2ccccc12)C(=O)N[C@@H](CC(C)C)C(=O)N[C@@H](CC(C)C)C(=O)N[C@@H](C)C(=O)NCC(=O)NCC(=O)N1CCC[C@H]1C(=O)N[C@@H](CO)C(=O)N[C@@H](CO)C(=O)NCC(=O)N[C@@H](C)C(=O)N1CCC[C@H]1C(=O)N1CCC[C@H]1C(=O)N1CCC[C@H]1C(=O)N[C@@H](CO)C(=O)O` [Compound No. 16] (H-Y[Aib]EGTFTSDYSIYLEK([εLys-εLys-γGlu-C20 diacid])QAAREFINWLLAGGPSSGAPPPS-OH) gave an AUC/Dose of 8.6 kg·h/L.
As for `CC[C@H](C)[C@H](NC(=O)[C@H](Cc1ccccc1)NC(=O)[C@H](CCC(=O)O)NC(=O)[C@H](CCCNC(=N)N)NC(=O)[C@H](C)NC(=O)[C@H](C)NC(=O)[C@H](CCC(N)=O)NC(=O)[C@H](CCCCNC(=O)[C@@H](N)CCCCNC(=O)[C@@H](N)CCCCNC(=O)CC[C@H](NC(=O)CCCCCCCCCCCCCCCCC(=O)O)C(=O)O)NC(=O)[C@H](CCC(=O)O)NC(=O)[C@H](CC(C)C)NC(=O)[C@H](CC(C)C)NC(=O)[C@@H](NC(=O)[C@H](CO)NC(=O)[C@H](Cc1ccc(O)cc1)NC(=O)[C@H](CC(=O)O)NC(=O)[C@H](CO)NC(=O)[C@@H](NC(=O)[C@H](Cc1ccccc1)NC(=O)[C@@H](NC(=O)CNC(=O)[C@H](CCC(=O)O)NC(=O)C(C)(C)NC(=O)[C@@H](N)Cc1ccc(O)cc1)[C@@H](C)O)[C@@H](C)O)[C@@H](C)CC)C(=O)N[C@@H](CC(N)=O)C(=O)N[C@@H](Cc1c[nH]c2ccccc12)C(=O)N[C@@H](CC(C)C)C(=O)N[C@@H](CC(C)C)C(=O)N[C@@H](C)C(=O)NCC(=O)NCC(=O)N1CCC[C@H]1C(=O)N[C@@H](CO)C(=O)N[C@@H](CO)C(=O)O` [Compound No. 20] (H-Y[Aib]EGTFTSDYSILLEK([εLys-εLys-γGlu-C18 diacid])QAAREFINWLLAGGPSS-OH; N-terminus assumed), the figure is 10.8 kg·h/L; as for `CC[C@H](C)[C@H](NC(=O)[C@H](Cc1ccccc1)NC(=O)[C@H](CCC(=O)O)NC(=O)[C@H](CCC(N)=O)NC(=O)[C@H](C)NC(=O)[C@H](C)NC(=O)[C@H](CCC(N)=O)NC(=O)[C@H](CCCCNC(=O)[C@@H](N)CCCCNC(=O)[C@@H](N)CCCCNC(=O)CC[C@H](NC(=O)CCCCCCCCCCCCCCCCC(=O)O)C(=O)O)NC(=O)[C@H](CCC(=O)O)NC(=O)[C@H](CC(C)C)NC(=O)[C@H](CC(C)C)NC(=O)[C@@H](NC(=O)[C@H](CO)NC(=O)[C@H](Cc1ccc(O)cc1)NC(=O)[C@H](CC(=O)O)NC(=O)[C@H](CO)NC(=O)[C@@H](NC(=O)[C@H](Cc1ccccc1)NC(=O)[C@@H](NC(=O)CNC(=O)[C@H](CCC(=O)O)NC(=O)C(C)(C)NC(=O)[C@@H](N)Cc1ccc(O)cc1)[C@@H](C)O)[C@@H](C)O)[C@@H](C)CC)C(=O)N[C@@H](CC(N)=O)C(=O)N[C@@H](Cc1c[nH]c2ccccc12)C(=O)N[C@@H](CC(C)C)C(=O)N[C@@H](CC(C)C)C(=O)N[C@@H](C)C(=O)NCC(=O)NCC(=O)N1CCC[C@H]1C(=O)N[C@@H](CO)C(=O)N[C@@H](CO)C(=O)NCC(=O)N[C@@H](C)C(=O)N1CCC[C@H]1C(=O)N1CCC[C@H]1C(=O)N1CCC[C@H]1C(=O)N[C@@H](CO)C(=O)O` [Compound No. 24] (H-Y[Aib]EGTFTSDYSILLEK([εLys-εLys-γGlu-C18 diacid])QAAQEFINWLLAGGPSSGAPPPS-OH; N-terminus assumed), 16.4 kg·h/L; as for `CC[C@H](C)[C@H](NC(=O)[C@H](Cc1ccccc1)NC(=O)[C@H](CCC(=O)O)NC(=O)[C@H](CCC(=O)O)NC(=O)[C@H](C)NC(=O)[C@H](C)NC(=O)[C@H](CCC(N)=O)NC(=O)[C@H](CCCCNC(=O)[C@@H](N)CCCCNC(=O)[C@@H](N)CCCCNC(=O)CC[C@H](NC(=O)CCCCCCCCCCCCCCCCC(=O)O)C(=O)O)NC(=O)[C@H](CCC(=O)O)NC(=O)[C@H](CC(C)C)NC(=O)[C@H](CC(C)C)NC(=O)[C@@H](NC(=O)[C@H](CO)NC(=O)[C@H](Cc1ccc(O)cc1)NC(=O)[C@H](CC(=O)O)NC(=O)[C@H](CO)NC(=O)[C@@H](NC(=O)[C@H](Cc1ccccc1)NC(=O)[C@@H](NC(=O)CNC(=O)[C@H](CCC(=O)O)NC(=O)C(C)(C)NC(=O)[C@@H](N)Cc1ccc(O)cc1)[C@@H](C)O)[C@@H](C)O)[C@@H](C)CC)C(=O)N[C@@H](CC(N)=O)C(=O)N[C@@H](Cc1c[nH]c2ccccc12)C(=O)N[C@@H](CC(C)C)C(=O)N[C@@H](CC(C)C)C(=O)N[C@@H](C)C(=O)NCC(=O)NCC(=O)N1CCC[C@H]1C(=O)N[C@@H](CO)C(=O)N[C@@H](CO)C(=O)NCC(=O)N[C@@H](C)C(=O)N1CCC[C@H]1C(=O)N1CCC[C@H]1C(=O)N1CCC[C@H]1C(=O)N[C@@H](CO)C(=O)O` [Compound No. 25] (H-Y[Aib]EGTFTSDYSILLEK([εLys-εLys-γGlu-C18 diacid])QAAEEFINWLLAGGPSSGAPPPS-OH), 15.2 kg·h/L.
For the compound `CC[C@H](C)[C@H](NC(=O)[C@H](Cc1ccccc1)NC(=O)[C@H](CCC(=O)O)NC(=O)[C@H](Cc1c[nH]cn1)NC(=O)[C@H](C)NC(=O)[C@H](C)NC(=O)[C@H](CCC(N)=O)NC(=O)[C@H](CCCCNC(=O)[C@@H](N)CCCCNC(=O)[C@@H](N)CCCCNC(=O)CC[C@H](NC(=O)CCCCCCCCCCCCCCCCC(=O)O)C(=O)O)NC(=O)[C@H](CCC(=O)O)NC(=O)[C@H](CC(C)C)NC(=O)[C@H](CC(C)C)NC(=O)[C@@H](NC(=O)[C@H](CO)NC(=O)[C@H](Cc1ccc(O)cc1)NC(=O)[C@H](CC(=O)O)NC(=O)[C@H](CO)NC(=O)[C@@H](NC(=O)[C@H](Cc1ccccc1)NC(=O)[C@@H](NC(=O)CNC(=O)[C@H](CCC(=O)O)NC(=O)C(C)(C)NC(=O)[C@@H](N)Cc1ccc(O)cc1)[C@@H](C)O)[C@@H](C)O)[C@@H](C)CC)C(=O)N[C@@H](CC(N)=O)C(=O)N[C@@H](Cc1c[nH]c2ccccc12)C(=O)N[C@@H](CC(C)C)C(=O)N[C@@H](CC(C)C)C(=O)N[C@@H](C)C(=O)NCC(=O)NCC(=O)N1CCC[C@H]1C(=O)N[C@@H](CO)C(=O)N[C@@H](CO)C(=O)NCC(=O)N[C@@H](C)C(=O)N1CCC[C@H]1C(=O)N1CCC[C@H]1C(=O)N1CCC[C@H]1C(=O)N[C@@H](CO)C(=O)O` [Compound No. 26] (H-Y[Aib]EGTFTSDYSILLEK([εLys-εLys-γGlu-C18 diacid])QAAHEFINWLLAGGPSSGAPPPS-OH), the AUC/Dose is on record as 27.4* kg*h/L.
